Experimental data: patent US11905268B2, “Anthranilic acid derivatives and their use in the treatment of human cancers” (UNIVERSITY OF CENTRAL FLORIDA RESEARCH FOUNDATION, INC., priority 2018, dated 2024)
Like-named read-outs stand apart in the source and are kept apart here.

Key:
[1] = tested on: L3.6pl cells; test: cells; assay type: cell-based; conditions: for IC50: Homo sapiens, L3.6pl; for L3.6pl MTC: maximum tolerated concentration where cells are >90% viable
[2] = tested on: L3.6pl cells; test: Ant44 assay in L3.6pl cells; assay type: cell-based, human; conditions: for EC value in Ant44 (3 μM) assay: Table 9, ECx = y: x% effect at y μM; for EC50: Homo sapiens, L3.6pl
Protocol: For example, in the ANT44 assay an EC48=9 means that the PTI molecule at 9 μM was able to block 48% of the Ant44 entry into L3.6 pl human Pancreatic ductal adenocarcinoma cells after 72 h incubation time at 37° C. Another explanation, is that the PTI was able to disrupt […] of the intracellular trafficking of Ant44 that leads to toxicity. Recall a polyamine transport inhibitor can work at any one (or more than one) of the different steps involved in the multi-step polyamine import and intracellular trafficking process. Blocking the entering spermidine from reaching its intended intracellular target is another way in which these compounds may function.
(§1) The higher EC value denotes the compound is giving a relative % growth of L3.6 pl cells consistent with inhibiting either Ant44 uptake or blocking the uptake of the rescuing dose of spermidine. Alternatively these compounds may disrupting the intracellular trafficking of Ant44 and spermidine so they cannot reach their intended intracellular target.

[3] = tested on: L3.6pl cells; test: DFMO/Spd rescue assay in L3.6pl cells; assay type: cell-based, human; conditions: for EC value in DFMO/Spd rescue assay: Table 9, ECx = y: x% effect at y μM
Protocol: In another example in the DFMO spermidine (Spd) rescue assay an EC38=8 means that the PTI molecule at 8 μM was able to block 38% of the entry of spermidine into DFMO treated L3.6 pl cells after 72 h incubation time at 37° C. Another explanation, is that the PTI was able to disrupt […] of the intracellular trafficking of Spd that leads to cell rescue. […] Since both Ant44 and Spermidine are polyamine-based systems, cells likely use one mode of the polyamine transport (basal or obligate) in each assay.
as §1

[4] = tested on: CHO cells; test: Cytotoxicity screen in CHO cells; conditions: for IC50 at 48 h: Chinese hamster, CHO K1 cells
Protocol: CHO K1 cells were grown in growth medium to 70% confluency and washed in PBS and trypsinized. […] Cells were spun at 100×g for 1 minute and incubated at 37° C. in a humidified CO2 incubator for 24 hours. […] Cellular ATP content was then assayed by adding 3 uL of ATPLite with a Beckman BioRAPTR FRD dispenser and incubated for 10 minutes at room temperature. Plates were spun at 200×g for 1 minute and read on a Perkin Elmer Viewlux multimode plate reader using luminescence mode. This assay was used for testing dose-response of dry powders.
CHO K1 cells were grown in growth medium to 70% confluency and washed in PBS and trypsinized. Cells were plated in assay medium at 10000 cells/mL for 200 cells per well using a Thermo Multidrop Combi in 20 uL into a white Greiner plate. Cells were spun at 100×g for 1 minute and incubated at 37° C. in a humidified CO2 incubator for 24 hours. […] This was followed by adding by 10 μL of assay medium to all wells with a Beckman BioRAPTR FRD dispenser. The plates were spun at 200×g for 1 minute and incubated at 37° C. in a humidified 5% CO2 incubator for 48 hours. Cellular ATP content was then assayed by adding 20 μL of ATPLite with a Beckman BioRAPTR FRD dispenser and incubated for 10 min at room temperature. Plates were spun at 200×g for 1 minute and read on a Perkin Elmer Envision for multimode plate reader using luminescence mode. Duplicates were run for each compound concentration, and the curves represent the average of the duplicates as percent viability.
The final compound concentration was either 20 μM or 10 μg/mL (depending upon the compound source). A successful PTI in Assay 1 would block the uptake of the toxic Ant44 probe and rescue the cells back to >90% relative growth vs an untreated control. It was critical to also evaluate the toxicity of the PTI by itself as a toxic PTI would give a false negative in Assay1 (and a false positive in Assay 2). […] Assay 2 then evaluated the ability of the compound to inhibit the uptake of a rescuing dose of Spermidine (Spd, 1 μM) into DFMO-treated CHO cells.

[5] = tested on: CHO cells; test: Ant44 rescue assay in CHO cells (Assay 1); assay type: cell-based, Chinese hamster; conditions: for IC50: Table 7, read-out: SAR IC50 Ant44 assay
Protocol: CHO K1 cells were grown in growth medium (RPMI+10% FBS+1×P/S+1% l-glutamine) to 70% confluency, washed in PBS and trypsinized. Cells were plated in assay medium (serum free RPMI+2% FBS+1×l-glutamine+1×P/S+[…] aminoguanidine) at 50000 cells/mL for 200 cells per well in 4 ul using a Thermo Multidrop Combi into a 1536-well white Aurora plate.
Ant44 is a cytotoxic polyamine, i.e., N^1-(9-anthracenyl)-homospermidine. A non-toxic PTI compound would block entry or intracellular trafficking of the Ant44 toxin and rescue the cells back to high viability. Therefore, this screen tested for compounds which rescued cells from Ant44 toxicity. […] This was followed by adding 10 uL of 10 uM Ant44 (FAC 2 uM) in assay medium with a Beckman BioRAPTR FRD dispenser or 10 uL of cells added in assay medium (positive control).

[6] = tested on: DFMO treated Chinese hamster ovary (CHO) cells; test: DFMO/spermidine rescue assay in CHO cells (Assay 2); assay type: cell-based
Protocol: In the reconfirmation assay compounds were run in quadruplicate. […] A PTI compound is expected to block the entry or disrupt the intracellular trafficking of spermidine and inhibit the ability of spermidine to rescue the growth or viability of DFMO treated cells.
DFMO/Spermidine assay Here cells were treated with an inhibitor of polyamine biosynthesis (DFMO) and rescued back to high viability by the presence of exogenous polyamine (spermidine). Putative PTI compounds were screened for their ability to block the entry or intracellular trafficking of exogenous spermidine (or otherwise disrupt the intracellular trafficking of spermidine) by measuring cell viability in the presence of DFMO+spermidine+PTI compound. […] This was followed by adding 10 μL of […] and 5 μM spermidine (FAC 5 mM DFMO and 1 μM spermidine) in assay medium with a Beckman BioRAPTR FRD dispenser or 10 μL of 5 mM DFMO added in assay medium (positive control). […] A PTI compound is expected to block the entry or disrupt the intracellular trafficking of spermidine and inhibit the ability of spermidine to rescue the growth or viability of DFMO treated cells Cytotoxicity

[7] = 72 h, Table 9, read-out: 72 h IC50
[8] = Cricetulus griseus, CHO, Table 7, read-out: SAR IC50 DFMO assay
[9] = read-out: IC50 values (toxicity profile)
[10] = relative growth after 72 h, read-out: L3.6pl IC50

O=C(Nc1ccc(N2CCC(Oc3ccccc3)CC2)cc1C(=O)O)c1cccnc1 was tested, and the IC50 [1, 7] was > 50 µM, the MTD ([1]; Table 9) was 10 µM and the “EC value in Ant44 (3 μM) assay” value [2] was “Not working”. The “EC value in DFMO/Spd rescue assay” value [3] was “EC25 = 8 μM”.

For Cl.O=C(Nc1ccc(N2CCNCC2)cc1C(=O)O)c1ccco1, the IC50 [1, 7] was > 50 µM, the MTD ([1]; Table 9) was 40 µM and the “EC value in Ant44 (3 μM) assay” value [2] was “EC22 = 40 μM”. The “EC value in DFMO/Spd rescue assay” value [3] was “EC10 = 40 μM”.

For COc1ccccc1C(=O)Nc1ccc(N2CCN(Cc3ccccn3)CC2)cc1C(=O)O [SBI-0814421, 2-(2-methoxybenzamido)-5-(4-(pyridin-2-ylmethyl)piperazin-1-yl)benzoic acid], the IC50 at 48 h [4] was > 40 µM, the “CHO MTD” value ([4]; hamster) was >20 µM and the IC50 ([5]; Cricetulus griseus, CHO) was > 40 µM. For the same compound, the “Active in Ant44 assay?” value ([5]; Table 2, in CHO) was “No in CHO”, the “L3.6pl MTD” value ([1]; Table 2) was 10 µM and the “L3.6pl MTD” value ([1]; Table 4B) was “(10) μM”. For the same compound, the EC50 ([3]; Homo sapiens, Table 2, DFMO rescue in L3.6pl) was > 10 µM, the EC50 ([3]; Table 4B, DFMO-spermidine rescue) was > 10 µM and the “activity in DFMO assay” value ([6]; CHO cells) was “some level of activity”. The EC50 ([6]; Cricetulus griseus, CHO, Table 2) was 20 µM, the IC50 ([6]; Cricetulus griseus, CHO, Table 4B, read-out: DFMO/CHO IC50) was 9.5 µM and the IC50 [6, 8] was 10 µM.

With O=C(Nc1ccc(N2CCN(c3ccccn3)CC2)cc1C(=O)O)c1ccco1 [SBI-0814419, 2-(furan-2-carboxamido)-5-(4-(pyridin-2-yl)piperazin-1-yl)benzoic acid] the IC50 at 48 h [4] was > 40 µM, the “MTD CHO” value ([4]; hamster) was >32 µM and the EC50 ([5]; Cricetulus griseus, CHO, Table 3, read-out: Ant44 rescue EC50 CHO) was > 32 µM. The IC50 ([5]; Cricetulus griseus, CHO) was > 40 µM, the “Ant44 IC50” value ([5]; Table 5B, CHO cells) was “trace” and the IC50 [1, 9] was > 38 µM. The IC50 [1, 10] was > 50 µM, the “MTD L3.6pl” value ([1]; Table 3) was >20 µM and the “L3.6pl MTD” value ([1]; Table 5B) was “(>10) uM”. The “L3.6pl MTC” value [1] was 12 µM, the “worked in Assay 1 (Ant44)” value [2] was “performed in both assays” and the EC50 ([2]; Table 3, read-out: Ant44 rescue EC50 L3.6pl) was 10 µM. For the same compound, the EC50 ([2]; Table 5B, Ant44 blockade, read-out: L3.6pl EC50) was 10 µM, the “worked in Assay 2 (DFMO)” value [3] was “performed in both assays” and the “Active in DFMO assay?” value ([3]; Table 3, in L3.6pl) was “No in CHO and in L3.6pl”. For the same compound, the IC50 [6, 8] was > 40 µM and the “Active in DFMO assay?” value ([6]; Table 3, in CHO) was “No in CHO and in L3.6pl”.

In the case of COc1ccccc1C(=O)Nc1ccc(N2CCN(c3cc(Cl)ccc3C)CC2)cc1C(=O)O [drawing 136], the IC50 [1, 7] is reported as 29.1 ± 0.03 µM, the MTD ([1]; Table 9) is reported as >5 µM and the “EC value in Ant44 (3 μM) assay” value [2] is reported as “not working as a PTI”. The “EC value in DFMO/Spd rescue assay” value [3] was “EC29 = 5 μM”.

With O=C(Nc1ccc(N2CCC(Oc3ccccc3)CC2)cc1C(=O)O)c1cc2ccccc2[nH]1 the IC50 [1, 7] was 38.3 ± 0.04 µM, the MTD ([1]; Table 9) was 10 µM and the “EC value in Ant44 (3 μM) assay” value [2] was “not working as a PTI”. The “EC value in DFMO/Spd rescue assay” value [3] was “EC30 = 9 μM”.

O=C(Nc1ccc(N2CCC(Oc3ccccc3)CC2)cc1C(=O)O)c1cc2ccccc2o1 was tested, and the IC50 [1, 7] was 44.4 ± 0.04 µM, the MTD ([1]; Table 9) was 10 µM and the “EC value in Ant44 (3 μM) assay” value [2] was “EC7 = 10 μM”. For the same compound, the “EC value in DFMO/Spd rescue assay” value [3] was “EC30 =10 μM”.

In the case of COc1ccccc1C(=O)Nc1ccc(N2CCC(Oc3ccccc3)CC2)cc1C(=O)O [SBI-0814420, 2-(2-methoxybenzamido)-5-(4-phenoxypiperidin-1-yl)benzoic acid], the IC50 at 48 h [4] is reported as > 40 µM, the IC50 ([5]; Cricetulus griseus, CHO) is reported as 32 µM and the IC50 [1, 9] is reported as > 38 µM. For the same compound, the IC50 [1, 10] was 38.6 ± 0.06 µM, the “L3.6pl MTC” value [1] was 10 µM and the “worked in Assay 1 (Ant44)” value [2] was “performed in both assays”. The “worked in Assay 2 (DFMO)” value [3] was “performed in both assays” and the IC50 [6, 8] was 19 µM.

For O=C(Nc1ccc(N2CCC(Oc3ccccc3)CC2)cc1C(=O)O)c1ccc(-c2ccc(Cl)cc2)o1, the IC50 [1, 7] was > 1 µM, the MTD ([1]; Table 9) was 1 µM and the “EC value in Ant44 (3 μM) assay” value [2] was “Not working”. The “EC value in DFMO/Spd rescue assay” value [3] was “EC6 = 1 μM”.

COc1ccc(C(=O)Nc2ccc(N3CCN(c4cc(Cl)ccc4C)CC3)cc2C(=O)O)c(OC)c1 [drawing 135] was tested, and the IC50 [1, 7] was > 50 µM, the MTD ([1]; Table 9) was >20 µM and the “EC value in Ant44 (3 μM) assay” value [2] was “inactive”. For the same compound, the “EC value in DFMO/Spd rescue assay” value [3] was “EC15 = 20 μM”.

With O=C(Nc1ccc(F)cc1C(=O)O)c1ccco1 the IC50 [1, 7] was > 100 µM, the MTD ([1]; Table 9) was >100 µM and the “EC value in Ant44 (3 μM) assay” value [2] was “EC36 = 50 μM”. For the same compound, the “EC value in DFMO/Spd rescue assay” value [3] was “EC67 = 100 μM”.

For COc1ccc(C(=O)Nc2ccc(N3CCN(c4cc(Cl)ccc4C)CC3)cc2C(=O)O)cc1 [drawing 134], the IC50 [1, 7] was 16.8 ± 0.1 µM, the MTD ([1]; Table 9) was 8 µM and the “EC value in Ant44 (3 μM) assay” value [2] was “EC21 = 8 μM”. For the same compound, the “EC value in DFMO/Spd rescue assay” value [3] was “EC49 = 8 μM”.
